Laboratory results reported in US11952584B2, “Functional peptides having antimicrobial activity against phytopathogenic microorganisms” (TOYOTA JIDOSHA KABUSHIKI KAISHA, priority 2019, dated 2024).
Several values for one entry are separate records, joined by “and”; a condition that tells them apart may be missing. Equal values may be shown once. Entries after “also recorded” stand apart in the source; their conditions may differ. Read-outs that look alike come from different tables or passages of the source. Ends that are not written are not given here.

Key:
Botrytis cinerea [1] = assay type: cell-based; conditions: for Plate antimicrobial activity test Botrytis cinerea (level): 25° C., 1 day or 2 days
[2] = system: Colletotrichum destructivum; assay type: cell-based; conditions: for Plate antimicrobial activity test Colletotrichum destructivum (level): 25° C., 1 day or 2 days
[3] = system: Erwinia carotovora subsp. carotovora
Fusarium oxysporum = assay type: cell-based
Botrytis cinerea [4] = assay: Botrytis cinerea leaf inoculation test (tomato leaf); assay type: in vivo; conditions: for inhibitory effects against Botrytis cinerea (in words): tomato leaf inoculation test, not shown in the figures
Experimental: In the present example, a suspension comprising Botrytis cinerea and a peptide to be tested was dropped on a plant leaf, and lesions were then observed by visual inspection to evaluate the antimicrobial activity of the tested peptide. First, the pores of Botrytis cinerea were suspended in a potato dextrose broth (PDB) to result in a spore concentration of 5×10^5 spores/ml, so as to prepare a PDB suspension spore solution. Subsequently, a peptide to be tested (TsORF18-2) was added to the PDB suspension spore solution, so that the final concentration of the peptide to be tested became 0 μM, 1 μM, 10 μM or 100 μM. It is to be noted that, as peptides to be tested, TsORF18 (full length) and TsORF18-40 a.a. were also used in the same manner as that of TsORF18-2. TsORF18 (full length) was dissolved in DMSO and was then used. On the other hand, TsORF18-2 and TsORF18-40 a.a were each dissolved in Milli-Q water and were then used. Thereafter, 10 μl each of the PDB suspension spore solution containing the peptide to be tested was dropped on the front side and the back side of the leaf of tomato (variety name: “Ponte Rosa”). In this condition, incubation was carried out at 25° C. for 2 days. Thereafter, the front and back sides of the leaf were observed by visual inspection.

[5] = system: Pseudomonas syringae pv. tomato
[6] = system: Colletotrichum destructivum; assay: Colletotrichum destructivum leaf inoculation test (Chinese cabbage leaf); assay type: in vivo; conditions: 25° C.; for lesion of Colletotrichum destructivum (in words): 4 days (FIG. 3); for Leaf inoculation test Chinese cabbage/Colletotrichum destructivum: 4 days, lesions by visual inspection
From the text: In the present example, a suspension comprising Colletotrichum destructivum and a peptide to be tested was dropped on a plant leaf, and lesions were then observed by visual inspection to evaluate the antimicrobial activity of the tested peptide. First, the pores of Colletotrichum destructivum were suspended in water to result in a spore concentration of 5×10^5 spores/ml, so as to prepare a water suspension of spores. Subsequently, peptides to be tested (TsORF18 (full length), TsORF18-40 a.a., and TsORF18-2) were each added to the water suspension of spores, so that the final concentration of the peptides to be tested became 0 μM, 1 μM, 10 μM or 100 μM. Thereafter, 10 μl each of the water suspension of spores containing the peptide to be tested was dropped on the front side and the back side of the leaf of Chinese cabbage (variety name: “Kigokoro 85”). In this condition, incubation was carried out at 25° C. for 4 days. Thereafter, the front and back sides of the leaf were observed by visual inspection.

[7] = system: Xanthomonas oryzae pv. oryzae; conditions: for Inhibitory rate Xanthomonas oryzae pv. oryzae / OD600 Xanthomonas oryzae pv. oryzae: peptide 100 μM, 28° C. a whole day and night; for Inhibitory rate Xanthomonas oryzae pv. oryzae: relative to water; for OD600 Xanthomonas oryzae pv. oryzae: water control 2.1
Ralstonia solanacearum = conditions: peptide 100 μM, 28° C. a whole day and night; for Inhibitory rate Ralstonia solanacearum: relative to water; for OD600 Ralstonia solanacearum: water control 2.6
Pyricularia oryzae = assay type: cell-based; conditions: for Plate antimicrobial activity test Pyricularia oryzae (level): 25° C., 1 day or 2 days
[8] = system: Colletotrichum orbiculare; assay type: cell-based; conditions: for Plate antimicrobial activity test Collectotrichum orbiculare (level): 25° C., 1 day or 2 days
[9] = plate test, microscopic observation (FIG. 1), concentration not given

Molecule | Plate antimicrobial activity test Botrytis cinerea (level) (Botrytis cinerea [1]; peptide 1 μM) | Plate antimicrobial activity test Botrytis cinerea (level) (Botrytis cinerea [1]; peptide 10 μM) | Plate antimicrobial activity test Botrytis cinerea (level) (Botrytis cinerea [1]; peptide 100 μM) | Plate antimicrobial activity test Colletotrichum destructivum (level) ([2]; peptide 1 μM) | Plate antimicrobial activity test Colletotrichum destructivum (level) ([2]; peptide 10 μM) | Plate antimicrobial activity test Colletotrichum destructivum (level) ([2]; peptide 100 μM) | OD600 Erwinia carotovora subsp. cartovora [3] | Inhibitory rate Erwinia carotovora subsp. cartovora ([3]; 100 μM) [%] | Plate antimicrobial activity test Fusarium oxysporum (level) (Fusarium oxysporum) | inhibitory effects against Botrytis cinerea (in words) (Botrytis cinerea [4]) | OD600 Pseudomonas syringae pv. tomato [5] | Inhibitory rate Pseudomonas syringae pv. tomato ([5]; 100 μM) [%] | Leaf inoculation test Chinese cabbage/Colletotrichum destructivum ([6]; peptide 1 μM) | Leaf inoculation test Chinese cabbage/Colletotrichum destructivum ([6]; peptide 10 μM) | Leaf inoculation test Chinese cabbage/Colletotrichum destructivum ([6]; peptide 100 μM) | Inhibitory rate Xanthomonas oryzae pv. oryzae [7] [%] | OD600 Xanthomonas oryzae pv. oryzae [7] | Inhibitory rate Ralstonia solanacearum (Ralstonia solanacearum) [%] | OD600 Ralstonia solanacearum (Ralstonia solanacearum) | also measured
ILLSLEIFERKFSRSVWYYGFPAFSERTRKFWRIWKGKTS [TsORF18-40aa] | 0 | 0 | 3 | 0 | 0 | 3 | 2.2 | −18.1 | 3 and 0 | not observed | 1.9 | 25.8 | Δ | ∘ | ∘ | −5.8 | 2.2 | −7.7 | 2.8 | lesion of Colletotrichum destructivum (in words) ([6]; concentration of 10 μM or 100 μM): not observed
YYGFPAFSERTRKFWRIWKGKT [TsORF18-2] | 1 | 3 | 3 | 0 | 2 | 3 | 2.6 | −39.2 | 3 and 1 and 0 | – | 1.9 | 25.3 | ∘ | ∘ | ∘ | 90.1 | 0.2 | 13.8 | 2.2 | inhibition of germination of Botrytis cinerea (in words) (Botrytis cinerea [1]; [9]): completely inhibited; also recorded: could inhibit germination; inhibition of germination of Colletotrichum destructivum (in words) [2, 9]: completely inhibited; also recorded: could inhibit germination; Plate antimicrobial activity test Pyricularia oryzae (level) (Pyricularia oryzae; peptide 1 μM): 0; Plate antimicrobial activity test Pyricularia oryzae (level) (Pyricularia oryzae; peptide 10 μM): 0; Plate antimicrobial activity test Pyricularia oryzae (level) (Pyricularia oryzae; peptide 100 μM): 3; inhibition of germination of Pyricularia oryzae (in words) (Pyricularia oryzae; [9]): completely inhibited; also recorded: could inhibit germination; inhibition of germination of Fusarium oxysporum (in words) (Fusarium oxysporum): completely inhibited; also recorded: could inhibit germination; lesion of Botrytis cinerea (in words) (Botrytis cinerea [4]; 100 μM, tomato leaf, 25° C., 2 days (FIG. 2)): not observed; Leaf inoculation test Tomato/Botrytis cinerea (Botrytis cinerea [4]; peptide 100 μM, tomato leaf, 25° C., 2 days, lesions by visual inspection): ∘; inhibition of growth of Pseudomonas syringae pv. tomato (in words) ([5]; 100 μM): could inhibit the growth; lesion of Colletotrichum destructivum (in words) ([6]; any concentration of 1 μM, 10 μM or 100 μM): not observed; inhibition of growth of Xanthomonas oryzae pv. oryzae (in words) ([7]; summary of Table 4, 100 μM): could inhibit the growth; Plate antimicrobial activity test Collectotrichum orbiculare (level) ([8]; peptide 1 μM): 0; Plate antimicrobial activity test Collectotrichum orbiculare (level) ([8]; peptide 10 μM): 1; Plate antimicrobial activity test Collectotrichum orbiculare (level) ([8]; peptide 100 μM): 3; inhibition of germination of Colletotrichum orbiculare (in words) [8, 9]: completely inhibited; also recorded: could inhibit germination
mdfimlaaaivkesfiflligllaaILLSLEIFERKFSRSVWYYGFPAFSERTRKFWRIWKGK TS (peptide, listed as Solanum lycopersicum, peptide of 65 amino acid residues from tomato xylem sap) MDFIMLAAAIVKESFIFLLIGLLAAILLSLEIFERKFSRSVWYYGFPAFSERTRKFWRIWKGKTS | 0 | 0 | 0 | 0 | 0 | 1 | 1.9 | – | 0 | not observed | 2.6 | – | – | – | – | 6.5 | 2.0 | −0.9 | 2.6 | Inhibitory rate Erwinia carotovora subsp. cartovora [3]: −3.7%; Inhibitory rate Pseudomonas syringae pv. tomato [5]: −3.1%
